Assay results: patent publication US7345049B2, “Phenylalanine derivatives” (Ajinomoto Co., Inc., priority 2003, dated 2008)
Structures can show the parent of a compound that is named as a salt.

Target: T1, VCAM-1/α4β1 integrin binding (Homo sapiens, UniProt P05556+P13612)
T1 construct: Jurkat (ATCC TIB-152), known to express integrin α4β1; endogenous in cells; host or cells: Jurkat (ATCC TIB-152)
Experiment: Assay of antagonistic activity to VCAM-1/α4β1 integrin binding under the existence of blood serum (Jurkat cell adhesion to VCAM-1/Fc)
Type: cell-based
Details: Jurkat cells, recombinant human VCAM-1/Fc, 50% human blood serum
Description: Assay of Antagonistic Activity to VCAM-1/α4β1 Integrin Binding Under the Existence of Blood Serum
The capacity of a test substance antagonistic to the binding of cell strain of human T cells, Jurkat (ATCC TIB-152), known to express integrin α4β1, to VCAM-1 was determined.
Fifty μl/well of a solution (500 ng/ml) of recombinant human VCAM-1/Fc (R & D systems) diluted with buffer A (0.1 M NaHCO3, pH 9.6) was added to a 96-well microtiter plate (Nunc Maxisorp). After the incubation at 4° C. overnight and washing once with PBS, a buffer (buffer B) obtained by diluting Block Ace (Snow Brand Milk Products Co., Ltd.) with PBS to ½ concentration was added in an amount of 150 μl/well. After the incubation at room temperature for 2 hours, buffer B was removed and the plate was washed with PBS once.
Jurkat cells were washed with Dulbecco modified Eagle medium (SIGMA, hereinafter referred to as “DMEM”) once. Then, the cells were again suspended in a binding buffer (DMEM containing 20 mM HEPES, 0.1% BSA, 2 mM MnCl2 and 50% human blood serum (Sigma)) to become 1×10^6 cells/mL.
Sixty μl of a test substance of various concentrations obtained by the dilution with the binding buffer was added to a round-bottom, 96-well plate (IWAKI). Immediately thereafter, 60 μl of the Jurkat cells (1×10^6 cells/ml) were added thereto and shaken on a plate shaker (IKA-Labortechnik, IKA-SCHUTTLER MTS-4) at 1000 rpm for 10 seconds. In 120 μL of the cell suspension to which the test substance was added, each 100 μL thereof was transferred on the VCAM-1/Fc-coated plate and incubated in dark place at room temperature for 60 minutes. After the shaking on the plate shaker at 1000 rpm for 30 seconds, the solution was immediately removed. Then, the unbound cells were removed by washing them with PBS once. A buffer C (PBS containing 0.82% Triton X-100) was added to the plate in an amount of 70 μL/well. After the shaking on the plate shaker at 1000 rpm for 5 minutes, the bound Jurkat cells were lysed. After centrifuging the cells on a plate centrifuge (SIGMA 4-15C) at room temperature at 2500 rpm for 5 minutes, 50 μL of supernatant thereof was transferred to a 96-well microtiter plate (Nunc Maxisorp). Each 50 μL of Substrate Buffer (Promega, CytoTox 96 Non-Radioactive Cytotoxicity Assay) was added thereto, shaken on a plate shaker at 1000 rpm for 10 seconds and reacted in dark place at room temperature for 30 minutes. Then, each 50 μL of Stop Solution (Promega, CytoTox 96 Non-Radioactive Cytotoxicity Assay) was added thereto and shaken on a plate shaker at 1000 rpm for 10 seconds. […] The absorbance thus obtained detects an activity of lactate dehydrogenase (LDH) dissolved in the supernatant of each well. Namely, the absorbance is proportional to the number of remaining Jurkat cells on the plate via the binding to VCAM-1. The test was conducted in duplicate and the binding rate of each test substance in various concentrations was determined while the absorbance of the test substance-free well was determined to be 100% and the absorbance of the Jurkat-cell-free well was determined to be 0%. The concentration for the 50% inhibition of binding, IC50, was calculated.

T1 sequence (P13612 34-1032): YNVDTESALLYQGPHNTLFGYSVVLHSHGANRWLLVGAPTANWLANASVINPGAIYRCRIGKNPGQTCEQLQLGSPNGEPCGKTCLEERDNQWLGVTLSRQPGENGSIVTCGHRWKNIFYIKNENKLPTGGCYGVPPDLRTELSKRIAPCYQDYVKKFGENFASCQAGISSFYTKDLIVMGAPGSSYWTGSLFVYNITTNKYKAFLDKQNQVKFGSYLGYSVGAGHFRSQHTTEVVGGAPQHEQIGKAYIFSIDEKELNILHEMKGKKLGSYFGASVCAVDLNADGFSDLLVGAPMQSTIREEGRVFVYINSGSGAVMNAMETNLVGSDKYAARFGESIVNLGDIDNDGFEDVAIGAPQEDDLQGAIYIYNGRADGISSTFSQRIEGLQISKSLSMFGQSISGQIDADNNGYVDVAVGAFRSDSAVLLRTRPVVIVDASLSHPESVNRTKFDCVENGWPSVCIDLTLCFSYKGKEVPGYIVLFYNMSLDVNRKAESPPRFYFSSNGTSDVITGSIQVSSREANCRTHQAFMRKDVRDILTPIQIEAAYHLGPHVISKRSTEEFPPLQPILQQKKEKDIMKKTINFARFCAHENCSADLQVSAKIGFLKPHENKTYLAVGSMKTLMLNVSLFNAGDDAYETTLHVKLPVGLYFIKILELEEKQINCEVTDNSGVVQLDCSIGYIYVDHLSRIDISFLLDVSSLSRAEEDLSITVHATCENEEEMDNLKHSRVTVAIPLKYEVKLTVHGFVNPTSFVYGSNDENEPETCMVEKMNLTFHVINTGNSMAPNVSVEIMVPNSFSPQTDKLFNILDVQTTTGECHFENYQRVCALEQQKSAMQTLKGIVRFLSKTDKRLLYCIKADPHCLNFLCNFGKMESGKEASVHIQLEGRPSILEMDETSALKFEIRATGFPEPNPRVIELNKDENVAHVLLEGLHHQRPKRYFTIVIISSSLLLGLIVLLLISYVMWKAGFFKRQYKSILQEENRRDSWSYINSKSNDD
T1 sequence (P05556 21-798): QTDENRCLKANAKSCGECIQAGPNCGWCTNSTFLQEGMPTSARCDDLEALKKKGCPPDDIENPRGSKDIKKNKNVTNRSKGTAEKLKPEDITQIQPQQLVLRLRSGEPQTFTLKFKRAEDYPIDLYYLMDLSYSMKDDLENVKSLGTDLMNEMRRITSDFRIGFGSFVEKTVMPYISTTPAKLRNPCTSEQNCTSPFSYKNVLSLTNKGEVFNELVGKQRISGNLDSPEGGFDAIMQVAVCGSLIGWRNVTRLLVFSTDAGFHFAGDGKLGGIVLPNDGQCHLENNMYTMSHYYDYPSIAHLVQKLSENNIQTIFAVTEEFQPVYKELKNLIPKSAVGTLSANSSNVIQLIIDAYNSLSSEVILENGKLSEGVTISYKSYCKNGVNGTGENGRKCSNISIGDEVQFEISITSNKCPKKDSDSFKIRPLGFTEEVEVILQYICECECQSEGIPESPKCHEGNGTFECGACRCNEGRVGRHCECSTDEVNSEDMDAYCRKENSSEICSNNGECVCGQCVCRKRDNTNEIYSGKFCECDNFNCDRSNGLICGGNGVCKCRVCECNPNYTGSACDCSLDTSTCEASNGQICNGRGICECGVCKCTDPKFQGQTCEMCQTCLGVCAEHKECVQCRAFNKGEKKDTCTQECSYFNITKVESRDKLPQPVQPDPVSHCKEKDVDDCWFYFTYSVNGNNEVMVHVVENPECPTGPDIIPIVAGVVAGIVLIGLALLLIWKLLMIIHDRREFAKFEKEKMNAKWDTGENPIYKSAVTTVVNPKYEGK

Row | SMILES | IC50 [nM]
1 | Cn1c(=O)n(-c2ccc(C[C@H](NC(=O)c3c(Cl)cccc3Cl)C(=O)O)cc2)c(=O)c2ccc(CN3CCCC3)cc21 [Example 35, N-(2,6-dichlorobenzoyl)-4-[1-methyl-7-(pyrrolidine-1-ylmethyl)-2,4-quinazoline-dione-3-yl]-L-phenylalanine trifluoroacetate] | 7.9
2 | CCN(CC)Cc1ccc2c(c1)c(=O)n(-c1ccc(C[C@H](NC(=O)c3c(Cl)cccc3Cl)C(=O)O)cc1)c(=O)n2C [Example 55] | 14.2
3 | CC(C)N(C)Cc1ccc2c(c1)c(=O)n(-c1ccc(C[C@H](NC(=O)c3c(Cl)cccc3Cl)C(=O)O)cc1)c(=O)n2C [Example 199] | 18
4 | CN(C)CCN(C)c1ccc2c(c1)c(=O)n(-c1ccc(C[C@H](NC(=O)c3c(Cl)cccc3Cl)C(=O)O)cc1)c(=O)n2C [Example 4] | 14
5 | CCC(C)NCc1ccc2c(c1)c(=O)n(-c1ccc(C[C@H](NC(=O)c3c(Cl)cccc3Cl)C(=O)O)cc1)c(=O)n2C (stereo partly drawn) [Example 198] | 5.7
6 | CCCNCc1ccc2c(=O)n(-c3ccc(C[C@H](NC(=O)c4c(Cl)cccc4Cl)C(=O)O)cc3)c(=O)n(C)c2c1 [Example 145, N-(2,6-dichlorobenzoyl)-4-[1-methyl-7-propylaminomethyl-2,4-quinazoline-dione-3-yl]-L-phenylalanine] | 3.8
7 | CCN(C)c1ccc2c(c1)c(=O)n(-c1ccc(C[C@H](NC(=O)c3c(Cl)cccc3Cl)C(=O)O)cc1)c(=O)n2C [Example 139, N-(2,6-dichlorobenzoyl)-4-[6-ethylmethylamino-1-methyl-2,4-quinazoline-dione-3-yl]-L-phenylalanine] | 8.4

System: lymphocytes in the peripheral blood
Experiment: Activity to elevate the number of lymphocytes in the peripheral blood in a rat
Type: in vivo, male Wistar rat
Details: oral, 3 mg/kg, 1 hour later, criterion 195% or more of vehicle group
Description: Activity to Elevate the Number of Lymphocytes in the Peripheral Blood in a Rat
The activity of the compounds of the present invention to elevate the number of lymphocytes in the rat was examined.
A dosing solution was prepared by dissolving the compounds of the present invention to dimethylsulfoxide, adding the mixed solution of polyethylene glycol 400: propylene glycol=1:1 and turning it upside and down repeatedly. The final concentration of DMSO was adjusted to become 2.5%.
The dosing solution of a test substance (3 mg/kg, 10 mg/kg or 30 mg/kg) was orally administered to a male Wistar rat (6 to 8 weeks age) in an amount of 4 mL/kg. After the settled time points after the administration, the blood was drawn from its abdominal large vein under anesthesia and stirred in a EDTA-2K coated container for blood collection. Then, the number of lymphocytes in the peripheral blood was determined by an automated comprehensive hematology analyzer (SF-3000, Sysmex). The test was executed in n=5, and the ratio (%) of the number of lymphocytes in the peripheral blood in a test-substance-administered group to that in a vehicle-treated group (a control group) was calculated while the average value of the number of lymphocytes in the peripheral blood in a control group was determined to be 100%.

Row | SMILES | Elevation of lymphocytes in the peripheral blood, pass/failure
8 | COC(=O)[C@H](Cc1ccc(-n2c(=O)c3cncnc3n(C)c2=O)cc1)NC(=O)c1c(Cl)cccc1Cl [Example 129, N-(2,6-dichlorobenzoyl)-4-(1-methyl-2,4-dioxo-1,2,3,4-tetrahydropyrimido[4,5-d]pyrimidine-3(2H)-yl)-L-phenylalanine methylester] | ◯ (pass (criterion measure or more))

Same assay, conditions: oral, 10 mg/kg, 6 hours later, criterion 150% or more of vehicle group

Row | SMILES | Elevation of lymphocytes in the peripheral blood, pass/failure
9 | CCCNCc1ccc2c(=O)n(-c3ccc(C[C@H](NC(=O)c4c(Cl)cccc4Cl)C(=O)OC(C)C)cc3)c(=O)n(C)c2c1 [Example 159, N-(2,6-dichlorobenzoyl)-4-[1-methyl-7-propylaminomethyl-2,4-quinazoline-dione-3-yl]-L-phenylalanine isopropylester] | ◯ (pass (criterion measure or more))
10 | CNCc1ccc2c(=O)n(-c3ccc(C[C@H](NC(=O)c4c(Cl)cccc4Cl)C(=O)OCC(C)C)cc3)c(=O)n(C)c2c1 [Example 158, N-(2,6-dichlorobenzoyl)-4-[7-methylaminomethyl-1-methyl-2,4-quinazoline-dione-3-yl]-L-phenylalanine isobutylester] | ◯ (pass (criterion measure or more))
11 | CNCc1ccc2c(=O)n(-c3ccc(C[C@H](NC(=O)c4c(Cl)cccc4Cl)C(=O)OC4CCCC4)cc3)c(=O)n(C)c2c1 [Example 157, N-(2,6-dichlorobenzoyl)-4-[7-methylaminomethyl-1-methyl-2,4-quinazoline-dione-3-yl]-L-phenylalanine cyclopentylester] | ◯ (pass (criterion measure or more))
12 | CCNCc1ccc2c(=O)n(-c3ccc(C[C@H](NC(=O)c4c(Cl)cccc4Cl)C(=O)OC(C)C)cc3)c(=O)n(C)c2c1 [Example 156, N-(2,6-dichlorobenzoyl)-4-[7-ethylaminomethyl-1-methyl-2,4-quinazoline-dione-3-yl]-L-phenylalanine isopropylester] | ◯ (pass (criterion measure or more))

Same assay, conditions: oral, 30 mg/kg, 12 hours later, criterion 150% or more of vehicle group

Row | SMILES | Elevation of lymphocytes in the peripheral blood, pass/failure
13 | CNCc1cc2c(=O)n(-c3ccc(C[C@H](NC(=O)c4c(Cl)cccc4Cl)C(=O)OC(C)C)cc3)c(=O)n(C)c2cc1F [Example 184, Isopropyl (2S)-2-[(2,6-dichlorobenzoyl)amino]-3-[4-(7-fluoro-1-methyl-6-[(methylamino)methyl]-2,4-dioxo-1,2,3,4-tetrahydro-3(2H)-quinazolinyl)phenyl]propanoate] | ◯ (pass (criterion measure or more))
14 | CNCCc1cc2c(=O)n(-c3ccc(C[C@H](NC(=O)c4c(Cl)cccc4Cl)C(=O)OC(C)C)cc3)c(=O)n(C)c2cc1F [Example 228, N-(2,6-dichlorobenzoyl)-4-{7-fluoro-1-methyl-6-[2-(methylamino)ethyl]-2,4-dioxo-1,2,3,4-tetrahydroquinazoline-3(2H)-yl}-L-phenylalanine isopropylester] | ◯ (pass (criterion measure or more))
15 | CC(C)OC(=O)[C@H](Cc1ccc(-n2c(=O)c3cc(CN)ccc3n(C)c2=O)cc1)NC(=O)c1c(Cl)cccc1Cl [Example 174, Isopropyl (2S)-3-[4-(6-(aminomethyl)-1-methyl-2,4-dioxo-1,2,3,4-tetrahydro-3(2H)-quinazolinyl)phenyl]-2-[(2,6-dichlorobenzoyl)amino]propanoate] | ◯ (pass (criterion measure or more))
16 | CC(C)OC(=O)[C@H](Cc1ccc(-n2c(=O)c3cc(CO)ccc3n(C)c2=O)cc1)NC(=O)c1c(Cl)cccc1Cl [Example 234, N-(2,6-dichlorobenzoyl)-4-[6-(hydroxymethyl)-1-methyl-2,4-dioxo-1,2,3,4-tetrahydroquinazoline-3-(2H)-yl]-L-phenylalanine isopropylester] | ◯ (pass (criterion measure or more))
17 | CC(C)OC(=O)[C@H](Cc1ccc(-n2c(=O)c3cc(OCCN(C)C)ccc3n(C)c2=O)cc1)NC(=O)c1c(Cl)cccc1Cl [Example 155, N-(2,6-dichlorobenzoyl)-4-[6-(2-dimethylaminoethoxy)-1-methyl-2,4-quinazoline-dione-3-yl]-L-phenylalanine isopropylester] | ◯ (pass (criterion measure or more))
18 | CNCc1ccc2c(c1)c(=O)n(-c1ccc(C[C@H](NC(=O)c3c(C)cccc3Cl)C(=O)OC(C)C)cc1)c(=O)n2C [Example 187, Isopropyl (2S)-2-[(2-chloro-6-methylbenzoyl)amino]-3-[4-(1-methyl-6-[(methylamino)methyl]-2,4-dioxo-1,2,3,4-tetrahydro-3(2H)-quinazolinyl)phenyl]propanoate] | ◯ (pass (criterion measure or more))
